Like-named read-outs stand apart in the source and are kept apart here.
Columns and labels:
[1] = target: T1, E. coli SSB-Cy5-dT15 complex (Escherichia coli, UniProt P0AGE0); test: Escherichia coli SSB Cy5-dT15 binding assay (fluorescence polarization); conditions: for IC50: disruption of Cy5-dT15-SSB complex, read-out: Cy5-dT15-SSB Binding IC50; for inhibition at 100 µM: read-out: SSB % Displaced @ 100 μM; for EC50: read-out: SSB EC50
T1 construct: purchased Promega
Outline: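 Compounds in DMSO (final 1% for screening, 5% for IC50 determination) added to MOPS pH 7.5 buffer with MgCl2, BSA, Tween 20 and DTT containing 20 nM SSB and 5 nM Cy5-dT15 probe. Displacement followed by polarization at 667 nm after 635 nm excitation.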

NS3h_2a(JFH1) = target: T2, NS3h_2a(JFH1) (Hepatitis C virus genotype 2a, UniProt Q99IB8); test: MBHA, DNA substrate, genotype 2a helicase; type: biochemical, hepatitis C virus genotype 2a(JFH1)
T2 construct: truncated C-terminally His-tagged NS3 proteins lacking the N-terminal protease, called NS3h; His-tag (C); made in house
T2 sequence (Q99IB8 1196-1661): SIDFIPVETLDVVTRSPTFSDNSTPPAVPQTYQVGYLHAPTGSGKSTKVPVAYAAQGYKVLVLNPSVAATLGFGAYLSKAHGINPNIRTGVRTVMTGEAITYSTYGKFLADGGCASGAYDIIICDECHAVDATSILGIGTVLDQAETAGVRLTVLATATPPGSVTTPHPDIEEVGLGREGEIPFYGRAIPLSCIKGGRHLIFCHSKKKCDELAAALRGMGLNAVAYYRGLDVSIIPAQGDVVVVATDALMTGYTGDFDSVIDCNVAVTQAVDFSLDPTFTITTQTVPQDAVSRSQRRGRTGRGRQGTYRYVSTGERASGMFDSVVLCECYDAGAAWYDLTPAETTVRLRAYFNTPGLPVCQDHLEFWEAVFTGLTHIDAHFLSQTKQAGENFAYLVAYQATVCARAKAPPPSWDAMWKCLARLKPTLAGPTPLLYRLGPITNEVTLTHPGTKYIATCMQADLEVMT
Experimental: All oligonucleotides were purchased from Integrated DNA Technologies (IDT, Coralville, Iowa). Primuline derivatives were synthesized and purified as described herein. Three different NS3 proteins were used in this study. Two were truncated C-terminally His-tagged NS3 proteins lacking the N-terminal protease, called NS3h, the third was a full-length NS3 with the portion of NS4A needed for protease activation fused to its N-terminus, called scNS4A-NS3 (Howe, et al. (1999) Protein Sci. 8:1332-41), and the fourth was a 23 kDa scNS4A-NS3 protease fragment lacking the helicase domains, called scNS4A-NS3p (Protein One, Rockville, Md.). NS3h was expressed from two different HCV strains. NS3h_1b(con1) was from the con1 strain of genotype 1b (GENBANK accession AB114136), and NS3h_2a(JFH1) was from the JFH1 strain of HCV genotype 2a (GENBANK accession AJ238799). […] His-tagged recombinant NS3h_1b(con1), NS3h_2a(JFH1), and scNS4A-NS3 (also from genotype 1b(con1)) were expressed, and purified as previously described (Frick, et al. (2010) supra; Lam, et al. (2003) J. Virol. 77:3950-3961). The scNS4A-NS3p (genotype 1b) was from Protein One. A plasmid expressing NS3h from dengue virus strain 2 (NS3h_DV2)(GENBANK accession 2BMF) is known in the art (Xu, et al. (2005) J. Virol. 79:10278-10288), and used to express and purify NS3h_DV2 (Belon, et al. (2010) supra)
Compounds that specifically target less conserved regions of a HCV protein are often not potent inhibitors of the same protein derived from other genotypes, and they might be susceptible to rapid evolution of related viruses. As described herein, primuline derivatives can inhibit HCV helicase isolated from the genotype 1b(con1) strain. Therefore to further analyze specificity, the subset of primuline analogs was tested on the helicase isolated from the genotype 2a(JFH1) strain. The two recombinant proteins differ at 83 of their 480 amino acids. The JHF1 strain is also of interest because it serves as the backbone for HCV strains capable of replicating in cell culture (Wakita, et al. (2005) Nat. Med. 11:791-796). The molecular beacon-based helicase assay (MBHA) (Belon & Frick (2008) supra) was used to measure the ability of each compound to inhibit DNA unwinding catalyzed by NS3h isolated from genotype 2a(JFH1) (NS3h_2a(JFH1)). […] Selected compounds were also tested for the ability to inhibit helicase reactions catalyzed by full-length NS3 and a single chain NS4A-NS3 protein (scNS4A-NS3) described below and used for protease assays.

[2] = genotype 2a (JFH1), read-out: Target Potency MBHA (IC50 avg., μM) 2a (JFH1) (converted)

T1 sequence (P0AGE0 2-178, one chain of several): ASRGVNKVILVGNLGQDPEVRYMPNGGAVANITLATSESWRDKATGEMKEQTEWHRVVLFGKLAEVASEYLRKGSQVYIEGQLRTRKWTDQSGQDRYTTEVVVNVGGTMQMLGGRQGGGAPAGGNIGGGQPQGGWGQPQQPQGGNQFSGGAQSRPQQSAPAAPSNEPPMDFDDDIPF

SMILES	IC50 [1] [µM]	inhibition at 100 µM [1] [%]	EC50 [1] [µM]	IC50 (NS3h_2a(JFH1); [2]) [µM]	IC50 (NS3h_2a(JFH1); DNA-based MBHA, genotype 2a(JFH1), read-out: DNA Helicase NS3h_2a IC50 (μM) ± SD) [µM]
Cc1ccc2nc(-c3ccc(NC(=O)c4ccc(NC(=O)c5ccccc5)cc4)cc3)sc2c1S(=O)(=O)O.N [Compound 40]	57 ± 13	84	57	79.2	–
Cc1ccc2nc(-c3ccc4nc(-c5ccc(NC(=O)c6ccc(CNC(=O)OCC7c8ccccc8-c8ccccc87)cc6)cc5)sc4c3)sc2c1S(=O)(=O)O.N [Compound 41]	57 ± 16	59	57	4.6	–
Cc1ccc2nc(-c3ccc(NC(=O)c4ccc(NC(=O)OCC5c6ccccc6-c6ccccc65)cc4)cc3)sc2c1S(=O)(=O)O.N [Compound 42]	27 ± 5	93	27	12	–
Cc1ccc2nc(-c3ccc(NC(=O)c4ccc(NC(=S)Nc5ccccc5)cc4)cc3)sc2c1S(=O)(=O)O.N [Compound 43]	23 ± 5	93	23	29	–
Cc1ccc2nc(-c3ccc(NC(=O)c4ccc(NC(=O)c5ccc(C(F)(F)F)cc5)cc4)cc3)sc2c1S(=O)(=O)O.N [Compound 44]	23 ± 6	86	23	14.7	–
Cc1ccc2nc(-c3ccc(NC(=O)c4ccc(NC(=O)Nc5ccccc5)cc4)cc3)sc2c1S(=O)(=O)O.N [Compound 45]	20 ± 4	96	20	32	–
Cc1ccc2nc(-c3ccc(NC(=O)c4ccc(NC(=O)c5ccc(N)cc5)cc4)cc3)sc2c1S(=O)(=O)O.N [Compound 46]	17 ± 5	94	17	26	–
Cc1ccc2nc(-c3ccc4nc(-c5ccc(NC(=O)Nc6ccc(C(F)(F)F)cc6)cc5)sc4c3)sc2c1S(=O)(=O)O.N [Compound 47]	15 ± 3	91	15	4	–
Cc1ccc2nc(-c3ccc4nc(-c5ccc(NC(=O)Nc6ccc(F)cc6)cc5)sc4c3)sc2c1S(=O)(=O)O.N [Compound 48]	11 ± 2	100	11	9.9	–
Cc1ccc2nc(-c3ccc4nc(-c5ccc(NC(=O)c6cccc7ccccc67)cc5)sc4c3)sc2c1S(=O)(=O)O.N [Compound 49]	9 ± 2	94	9	3.9	–
Cc1ccc2nc(-c3ccc4nc(-c5ccc(NC(=S)Nc6ccccc6)cc5)sc4c3)sc2c1S(=O)(=O)O.N [Compound 50]	7 ± 1	98	7	9.6	–
Cc1ccc2nc(-c3ccc(NC(=O)c4ccc(NC(=O)c5ccc(NC(=O)OCC6c7ccccc7-c7ccccc76)cc5)cc4)cc3)sc2c1S(=O)(=O)O.N [Compound 51]	7 ± 3	–	7	1.9	–
Cc1ccc2nc(-c3ccc4nc(-c5ccc(NC(=O)Nc6ccccc6)cc5)sc4c3)sc2c1S(=O)(=O)O.N [Compound 52]	6 ± 1	95	6	6	–
Cc1ccc2nc(-c3ccc4nc(-c5ccc(NCc6ccccc6)cc5)sc4c3)sc2c1S(=O)(=O)O [Compound 53]	5 ± 1	102	5	13.5	–
Cc1ccc2nc(-c3ccc4nc(-c5ccc(NC(=O)Nc6ccc(Cl)cc6)cc5)sc4c3)sc2c1S(=O)(=O)O [Compound 54]	5 ± 1	94	5	4.4	–
COc1ccc(NC(=O)Nc2ccc(-c3nc4ccc(-c5nc6ccc(C)c(S(=O)(=O)O)c6s5)cc4s3)cc2)cc1 [Compound 55]	4 ± 1	95	4	6.4	–
Cc1ccc2nc(-c3ccc4nc(-c5ccc(N)cc5)sc4c3)sc2c1S(=O)(=O)O [Compound P2a, 2′-(4-aminophenyl)-6-methyl-[2,6′-bibenzo[d]thiazole]-7-sulfonic acid]	2	–	–	–	58 ± 51
